SMILES strings stand for the structures. Counter-ions that a name gives are not always drawn.

We go through 46 compounds from patent US6787535B2, “Indole derivatives with 5HT6 receptor affinity” (Syntex (U.S.A.) LLC, priority 2001, dated 2004).

The compound `CN1CCC(c2cccc3c(S(=O)(=O)c4ccc(F)cc4)c[nH]c23)CC1` [compound 510, 3-(4-fluoro-benzenesulfonyl)-7-(1-methyl-piperidin-4-yl)-1H-indole] had a melting point of 178 to 182 °C.

`O=S(=O)(c1ccccn1)c1c[nH]c2cc(N3CCNCC3)ccc12` showed a melting point of 246.7 to 247.2 °C.

`O=S(=O)(c1cccc(Cl)c1)c1c[nH]c2ccc(N3CCNCC3)cc12` [compound 110, 3-(3-chloro-benzenesulfonyl)-5-piperazin-1-yl-1H-indole] came in with a melting point of 192 to 197 °C.

In turn, `Cc1[nH]c2c(N3CCNCC3)cccc2c1S(=O)(=O)c1ccc(Cl)cc1` [compound 602, 3-(4-chlorobenzenesulfonyl)-2-methyl-7-piperazin-1-yl-1H-indole] displayed a melting point of 118 to 120 °C.

As to `O=S(=O)(c1nc2ccccc2s1)c1c[nH]c2c(N3CCNCC3)cccc12` [compound 114, 2-(7-piperazin-1-yl-1H-indole-3-sulfonyl)-benzothiazole], the melting point was 295 °C.

Take `O=S(=O)(c1ccccc1)c1c[nH]c2ccc(N3CCNCC3)cc12`: the melting point is 254 to 264 °C (dec.).

On to `O=S(=O)(c1cccc(Cl)c1)c1c[nH]c2c(C3CCNCC3)cccc12` [compound 208, 3-(3-Chloro-benzenesulfonyl)-7-piperidin-4-yl-1H-indole], for which the melting point lay within 272.3 to 272.9 °C.

`CN1CCN(c2cccc3c(S(=O)(=O)c4cc(Cl)cc(Cl)c4)c[nH]c23)CC1` [compound 507, 3-(3,5-dichloro-benzenesulfonyl)-7-(4-methyl-piperazin-1-yl)-1H-indole] registered a melting point of 237.1 to 241.5 °C.

Take `CN1CCN(c2cccc3c(S(=O)(=O)c4ccc(Cl)cc4Cl)c[nH]c23)CC1` [compound 506, 3-(2,4-dichloro-benzenesulfonyl)-7-(4-methyl-piperazin-1-yl)-1H-indole]: the melting point is 199 to 203 °C.

As for `O=S(=O)(c1ccccc1)c1c[nH]c2c(N3CCN(CC4CC4)CC3)cccc12` [compound 511, 3-benzenesulfonyl-7-(4-cyclopropylmethyl-piperazin-1-yl)-1H-indole], the melting point was in the range of 280 to 282 °C.

The compound `c1ccc(Sc2c[nH]c3ccc(N4CCNCC4)cc23)cc1` gave a melting point of 246 to 247 °C.

`O=S(=O)(c1ccccn1)c1c[nH]c2c(N3CCNCC3)cccc12` gave a melting point of 198 to 199 °C.

For `O=S(=O)(c1ccccc1)c1c[nH]c2c(C3CCNCC3)cccc12` [compound 301, 3-benzenesulfonyl-7-piperidin-4-yl-1H-indole], the melting point was in the range of 186 to 189.5 °C.

As to `CN1CCN(c2cccc3c(S(=O)(=O)c4cccc(Cl)c4)c[nH]c23)CC1` [compound 505, 3-(3-chloro-benzenesulfonyl)-7-(4-methyl-piperazin-1-yl)-1H-indole], the melting point fell in the range of 163 to 171 °C.

Regarding `O=S(=O)(c1ccc(Cl)c(Cl)c1)c1c[nH]c2c(N3CCNCC3)cccc12` [compound 103, 3-(3,4-dichloro-benzenesulfonyl)-7-piperazin-1-yl-1H-indole], the melting point stood at 290 °C.

Compound `Cn1cc(S(=O)(=O)c2cc(Cl)cc(Cl)c2)c2cc(N3CCNCC3)ccc21` [compound 411, 3-(3,5-dichloro-benzenesulfonyl)-1-methyl-5-piperazin-1-yl-1H-indole] came in with a melting point of 282 to 284.5 °C.

`Cn1cc(S(=O)(=O)c2cccc(Cl)c2)c2cc(N3CCNCC3)ccc21` [compound 415, 3-(3-chloro-benzenesulfonyl)-1-methyl-5-piperazin-1-yl-1H-indole]: the melting point fell in the range of 185.5 to 188.5 °C.

Compound `O=S(=O)(c1cc(Cl)cc(Cl)c1)c1c[nH]c2ccc(N3CCNCC3)cc12` [compound 205, 3-(3,5-dichloro-benzenesulfonyl)-5-piperazin-1-yl-1H-indole] showed a melting point of more than 300 °C.

In turn, `Cn1cc(S(=O)(=O)c2ccccc2)c2cccc(N3CCNCC3)c21` (as salt: hydrochloride) [compound 401, 3-benzenesulfonyl-1-methyl-7-piperazin-1-yl-1H-indole hydrochloride] came in with a melting point of 249 to 250 °C.

For the compound `O=S(=O)(c1ccc(Cl)cc1Cl)c1c[nH]c2c(N3CCNCC3)cccc12` [compound 106, 3-(2,4-dichloro-benzenesulfonyl)-7-piperazin-1-yl-1H-indole], the melting point turned out to be 300 °C.

In turn, `O=S(=O)(c1cc(Cl)cc(Cl)c1)c1c[nH]c2c(N3CCNCC3)cccc12` [compound 105, 3-(3,5-dichloro-benzenesulfonyl)-7-piperazin-1-yl-1H-indole] returned a melting point of 290 °C.

For the compound `O=S(=O)(c1ccc(C(F)(F)F)cc1)c1c[nH]c2ccc(N3CCNCC3)cc12` [compound 203, 5-piperazin-1-yl-3-(4-trifluoromethyl-benzenesulfonyl)-1H-indole], the melting point lay within 274.9 to 280.9 °C.

As for `Cc1[nH]c2c(N3CCNCC3)cccc2c1S(=O)(=O)c1ccc(F)cc1` [compound 603, 3-(4-fluorobenzenesulfonyl)-2-methyl-7-piperazin-1-yl-1H-indole], the melting point lay in the range of 232 to 236 °C.

Regarding `Cn1cc(S(=O)(=O)c2ccccc2C(F)(F)F)c2cccc(N3CCNCC3)c21` [compound 404, 1-methyl-7-piperazin-1-yl-3-(2-trifluoromethyl-benzenesulfonyl)-1H-indole], the melting point was 295 °C.

Consider `Cn1cc(S(=O)(=O)c2cccc(C(F)(F)F)c2)c2cc(N3CCNCC3)ccc21` [compound 410, 1-methyl-5-piperazin-1-yl-3-(3-trifluoromethyl-benzenesulfonyl)-1H-indole], for which the melting point is 235 to 240 °C.

Regarding `Cn1cc(S(=O)(=O)c2ccccc2Cl)c2cc(N3CCNCC3)ccc21` [compound 414, 3-(2-chloro-benzenesulfonyl)-1-methyl-5-piperazin-1-yl-1H-indole], the melting point lay within 249.6 to 253 °C.

For the compound `CN1CCN(c2cccc3c(S(=O)(=O)c4ccccc4Cl)c[nH]c23)CC1` [compound 504, 3-(2-chloro-benzenesulfonyl)-7-(4-methyl-piperazin-1-yl)-1H-indole], the melting point lay within 168.5 to 175.9 °C.

Compound `CCCN1CCN(c2cccc3c(S(=O)(=O)c4ccccc4)c[nH]c23)CC1` [compound 512, 3-benzenesulfonyl-7-(4-propyl-piperazin-1-yl)-1H-indole] gave a melting point of 290 to 295 °C.

With `Cn1cc(S(=O)(=O)c2cccc(Cl)c2)c2cccc(N3CCNCC3)c21` [compound 408, 3-(3-chloro-benzenesulfonyl)-1-methyl-7-piperazin-1-yl-1H-indole], the melting point is 300 °C.

Compound `O=S(=O)(c1ccc(F)cc1)c1c[nH]c2c(N3CCNCC3)cccc12` [compound 104, 3-(4-fluoro-benzenesulfonyl)-7-piperazin-1-yl-1H-indole] had a melting point of 247 to 249 °C.

Take `Cn1cc(S(=O)(=O)c2ccccc2)c2cc(N3CCNCC3)ccc21` [compound 403, 3-benzenesulfonyl-1-methyl-5-piperazin-1-yl-1H-indole]: the melting point was 239 to 240 °C (dec.).

For `O=S(=O)(c1ccc(Cl)c(Cl)c1)c1c[nH]c2ccc(N3CCNCC3)cc12` [compound 111, 3-(3,4-dichloro-benzenesulfonyl)-5-piperazin-1-yl-1H-indole], the melting point is more than 300 °C.

Take `Cn1cc(S(=O)(=O)c2ccc(F)cc2)c2cccc(N3CCNCC3)c21` [compound 405, 3-(4-fluoro-benzenesulfonyl)-1-methyl-7-piperazin-1-yl-1H-indole]: the melting point stood at 300 °C.

`O=S(=O)(c1cccc(Cl)c1Cl)c1c[nH]c2ccc(N3CCNCC3)cc12` [compound 202, 3-(2,3-dichloro-benzenesulfonyl)-5-piperazin-1-yl-1H-indole] displayed a melting point of more than 300 °C.

For `c1ccc(Sc2c[nH]c3c(N4CCNCC4)cccc23)cc1`, the melting point was 300 °C.

For `O=S(=O)(c1ccccc1Cl)c1c[nH]c2ccc(N3CCNCC3)cc12` [compound 206, 3-(2-chloro-benzenesulfonyl)-5-piperazin-1-yl-1H-indole], the melting point is more than 300 °C.

Compound `COc1ccc(S(=O)(=O)c2c(C)[nH]c3c(N4CCNCC4)cccc23)cc1` [compound 604, 3-(4-methoxybenzenesulfonyl)-2-methyl-7-piperazin-1-yl-1H-indole] registered a melting point of 182 to 184 °C.

The compound `O=S(=O)(c1ccccc1)c1c[nH]c2c(N3CCNCC3)cccc12` (as salt: hydrochloride) showed a melting point of 278 to 280 °C.

`Cn1cc(S(=O)(=O)c2ccccn2)c2cc(N3CCNCC3)ccc21` [compound 416, 1-methyl-5-piperazin-1-yl-3-(pyridine-2-sulfonyl)-1H-indole] gave a melting point of 256.8 to 257.5 °C.

In the case of `O=S(=O)(c1ccc(F)cc1)c1c[nH]c2ccc(N3CCNCC3)cc12` [compound 207, 3-(4-fluoro-benzenesulfonyl)-5-piperazin-1-yl-1H-indole], the melting point lay within 289 to 291 °C.

On to `CN1CCN(c2cccc3c(S(=O)(=O)c4ccccc4C(F)(F)F)c[nH]c23)CC1` [compound 508, 7-(4-methyl-piperazin-1-yl)-3-(2-trifluoromethyl-benzenesulfonyl)-1H-indole], for which the melting point lay in the range of 237.1 to 241.5 °C.

For `O=S(=O)(c1ccccc1C(F)(F)F)c1c[nH]c2c(N3CCNCC3)cccc12` [compound 109, 7-piperazin-1-yl-3-(2-trifluoromethyl-benzenesulfonyl)-1H-indole], the melting point fell in the range of 186 to 187 °C.

`Cc1[nH]c2c(N3CCNCC3)cccc2c1S(=O)(=O)c1ccccc1` [compound 601, 3-benzenesulfonyl-2-methyl-7-piperazin-1-yl-1H-indole] gave a melting point of 188 to 190 °C.

Turning to `Cn1cc(S(=O)(=O)c2cccc(Cl)c2Cl)c2cc(N3CCNCC3)ccc21` [compound 409, 3-(2,3-dichloro-benzenesulfonyl)-1-methyl-5-piperazin-1-yl-1H-indole], the melting point is 198 to 203 °C.

In turn, `Clc1cccc(Sc2c[nH]c3ccc(N4CCNCC4)cc23)c1Cl` registered a melting point of 255.1 to 255.5 °C.

Compound `Cn1cc(S(=O)(=O)c2ccc(F)cc2)c2cc(N3CCNCC3)ccc21` [compound 413, 3-(4-fluoro-benzenesulfonyl)-1-methyl-5-piperazin-1-yl-1H-indole] gave a melting point of 195 to 207 °C.
